From patent US20190374533A1, “COMPOUNDS AND METHODS FOR INHIBITING NHE-MEDIATED ANTIPORT IN THE TREATMENT OF DISORDERS ASSOCIATED WITH FLUID RETENTION OR SALT OVERLOAD AND GASTROINTESTINAL TRACT DISORDERS” (Ardelyx, Inc., priority 2008, published 2019)
Counter-ions that a name gives are not always drawn. Like-named read-outs stand apart in the source and are kept apart here.

Key:
fecal water content = test: Pharmacodynamic model: effect of test compounds on fecal water content; assay type: in vivo, rat; conditions: female Sprague Dawley rats, 3 mg/kg oral, feces collected 16 hrs; for % Fecal water: mean of 6
Description: Normal female Sprague Dawlev rats (Charles-River laboratories international, Hollister, Calif.), 7-8 weeks old with body weight 175-200 g were acclimated for at least 3 days before proceeding to experiments. The animals were provided food (Harlan Teklad 2018c) and water ad lib, through the experiment. Animals were randomly grouped with 6 rats per group.
The experiments were initiated by orally dosing test compounds at 3 mg/kg in volume of 10 ml/kg. Rats from control group were gavaged with the same volume of vehicle (water). After dosing, rats were placed in metabolic cages for 16 hrs (overnight). Food and water consumption were monitored. After sixteen hours, feces and urine were collected. The percent of fecal water was measured by weighing fecal samples before and after drying.
Representative data of % fecal water content are shown in Table 12 (data are expressed as means, with 6 animals per data point). The differences between control and treated groups were evaluated by one way ANOVA with Dunnett post tests. Results are significant if p<0.05.

rat NHE-3 = molecular target: T1, rat NHE-3 (Rattus norvegicus, UniProt P26433); test: Cell-based assay of NHE-3 activity (Pharmacological Test Example 1); conditions: for IC50: read-out: rat NHE-3 Average pIC50 (converted)
T1 construct: expressed in transfected cells; host or cells: Opossum kidney (OK) cells (ATCC), electroporated
In short: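 Na+-dependent H+ exchange tracked with the pH-sensitive dye BCECF in opossum kidney cells transiently expressing rat NHE-3. Intracellular acidification by NH4Cl prepulse, then 10 min in ammonium- and Na+-free HEPES, pH 7.4, room temperature. Initial rates averaged over 3-6 replicates give pIC50.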

[1] = Determination of compound Cmax and AUC; assay type: in vivo; conditions: rat; Sprague-Dawley rats, oral gavage, serum 0.5-4 h; actual oral dose (mg/kg) given
In short: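 Sprague-Dawley rats dosed orally by gavage at 2.5 mg/kg; serum sampled at 0.5, 1, 2 and 4 h. Acetonitrile protein precipitation, then LC/MS/MS quantitation against a standard curve.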

[2] = human absorption data; cited from earlier work
urinary sodium levels = test: Pharmacodynamic model: effect of test compounds on urinary sodium levels; assay type: in vivo, rat; conditions: rats, several oral dose levels, corrected for sodium intake (FIGS. 3A and 3B)
Description: It is anticipated that the reduction of absorption of sodium from the intestine will be reflected in reduced levels of sodium in the urine. To test this, the protocols in Example 13 were repeated, but urine was collected in addition to feces. Urine sodium levels were analyzed by ion chromatography (IC), and the amound of sodium excreted in the urine was corrected for variations in sodium intake by measuring food consumption.

[3] = tested on: gastrointestinal motility; test: Restoration of gastrointestinal motility in opioid induced constipation (loperamide); assay type: in vivo, mice; conditions: vehicle oral / loperamide s.c. (0.3 to 6 mg/kg), 30-minute period
[4] = OK cells expressing rat NHE-3, 0-30 uM test compound, 5 uM EIPA

T1 sequence (P26433 29-831): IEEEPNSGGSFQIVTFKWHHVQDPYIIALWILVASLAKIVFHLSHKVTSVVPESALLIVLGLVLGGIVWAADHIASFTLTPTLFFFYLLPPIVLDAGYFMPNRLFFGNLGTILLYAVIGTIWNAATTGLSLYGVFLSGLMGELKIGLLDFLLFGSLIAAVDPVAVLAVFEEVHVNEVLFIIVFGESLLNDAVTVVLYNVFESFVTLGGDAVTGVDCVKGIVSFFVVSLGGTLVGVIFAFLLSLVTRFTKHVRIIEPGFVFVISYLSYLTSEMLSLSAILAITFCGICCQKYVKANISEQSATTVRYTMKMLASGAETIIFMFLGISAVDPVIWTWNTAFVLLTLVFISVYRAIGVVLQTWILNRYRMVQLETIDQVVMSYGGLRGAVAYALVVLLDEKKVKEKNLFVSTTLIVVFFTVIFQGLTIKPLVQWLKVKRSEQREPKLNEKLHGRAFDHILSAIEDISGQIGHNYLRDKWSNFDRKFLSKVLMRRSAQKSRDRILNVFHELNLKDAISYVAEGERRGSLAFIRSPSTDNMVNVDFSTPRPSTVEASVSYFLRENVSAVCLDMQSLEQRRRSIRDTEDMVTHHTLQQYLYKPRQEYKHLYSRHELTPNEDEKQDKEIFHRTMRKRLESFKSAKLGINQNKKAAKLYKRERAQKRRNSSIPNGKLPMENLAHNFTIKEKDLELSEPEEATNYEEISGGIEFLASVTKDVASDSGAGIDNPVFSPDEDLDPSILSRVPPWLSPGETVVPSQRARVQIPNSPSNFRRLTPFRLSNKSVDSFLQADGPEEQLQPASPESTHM

Row | Compound | % Fecal water (% of control) (fecal water content) | % Fecal water (fecal water content) | % FA [2] | other results
1 | CN1Cc2c(Cl)cc(Cl)cc2C(c2ccc(S(=O)(=O)NCCOCCOCCNC(=O)Nc3ccc(NC(=O)NCCOCCOCCNS(=O)(=O)c4ccc(C5CN(C)Cc6c(Cl)cc(Cl)cc65)cc4)cc3)cc2)C1 (centres unmarked) [Example 239, N,N′-(2,2′-(2,2′-(2,2′-(1,4-phenylenebis(azanediyl))bis(oxomethylene)bis(azanediyl)bis(ethane-2,1-diyl))bis(oxy)bis(ethane-2,1-diyl))bis(oxy)bis(ethane-2,1-diyl))bis(4-(6,8-dichloro-2-methyl-1,2,3,4-tetrahydroisoquinolin-4-yl)benzenesulfonamide)] | 114% of control | 58% | – | –
2 | CN1Cc2c(Cl)cc(Cl)cc2C(c2cccc(S(=O)(=O)NCCOCCOCCNC(=O)c3ccc(C(=O)NCCOCCOCCNS(=O)(=O)c4cccc(C5CN(C)Cc6c(Cl)cc(Cl)cc65)c4)cc3)c2)C1 (centres unmarked) [Example 234, N1,N4-bis(2-(2-(2-(3-(6,8-dichloro-2-methyl-1,2,3,4-tetrahydroisoquinolin-4-yl)phenylsulfonamido)ethoxy)ethoxy)ethyl)terephthalamide] | 117% of control | 58% | – | rat NHE-3 Average pIC50 (rat NHE-3): 5 to 6; AUC [1]: < 2 ng·h/mL; Cmax [1]: < 2 ng/mL
3 | CCN1CCCC1CNC(=O)c1cc(S(N)(=O)=O)ccc1OC (centres unmarked) [sulpiride] | – | – | 36% | –
4 | CN1Cc2c(Cl)cc(Cl)cc2[C@H](c2ccc(S(=O)(=O)NCCOCCOCCOCCNC(=O)NCCOCCOCCOCCNS(=O)(=O)c3ccc([C@@H]4CN(C)Cc5c(Cl)cc(Cl)cc54)cc3)cc2)C1 (single isomer, unassigned) [Example 250, (S or R)—N,N′-(13-oxo-3,6,9,17,20,23-hexaoxa-12,14-diazapentacosane-1,25-diyl)bis(4-((S or R)-6,8-dichloro-2-methyl-1,2,3,4-tetrahydroisoquinolin-4-yl)benzenesulfonamide)] | 120% of control | 60% | – | IC50 (rat NHE-3): < 100 nM
5 | C=CCOc1ccccc1OCC(O)CNC(C)C (centres unmarked) [oxprenolol] | – | – | 97% | –
6 | O=C(O)c1cc(/N=N/c2ccc(S(=O)(=O)Nc3ccccn3)cc2)ccc1O [sulfasalazine, reference compound] | – | – | 12% | –
7 | CC(C)NCC(O)COc1cccc2[nH]ccc12 (centres unmarked) [pindolol] | – | – | 92% | –
8 | Cc1ccccc1N1C(=O)c2cc(S(N)(=O)=O)c(Cl)cc2NC1C (centres unmarked) [metolazone, Metolazone, reference compound] | – | – | 64% | –
9 | Cc1cc(=O)n(-c2ccccc2)n1C [phenazone] | – | – | 97% | –
10 | CN1Cc2c(Cl)cc(Cl)cc2C(c2ccc(S(=O)(=O)NCCOCCOCCNC(=O)NCCCCNC(=O)NCCOCCOCCNS(=O)(=O)c3ccc(C4CN(C)Cc5c(Cl)cc(Cl)cc54)cc3)cc2)C1 (centres unmarked) [Example 238, N,N′-(10,17-dioxo-3,6,21,24-tetraoxa-9,11,16,18-tetraazahexacosane-1,26-diyl)bis(4-(6,8-dichloro-2-methyl-1,2,3,4-tetrahydroisoquinolin-4-yl)benzenesulfonamide)] | 121% of control | 60% | – | –
11 | NC[C@H]1CC[C@H](C(=O)O)CC1 [tranexamic acid] | – | – | 55% | –
12 | CN1Cc2c(Cl)cc(Cl)cc2[C@H](c2ccc(S(=O)(=O)NCCOCCOCCNC(=O)CCC(=O)NCCOCCOCCNS(=O)(=O)c3ccc([C@@H]4CN(C)Cc5c(Cl)cc(Cl)cc54)cc3)cc2)C1 (single isomer, unassigned) [Example 200, N1,N4-bis(2-(2-(2-(4-((S or R)-6,8-dichloro-2-methyl-1,2,3,4-tetrahydroisoquinolin-4-yl)phenylsulfonamido)ethoxy)ethoxy)ethyl)succinamide bis-hydrochloride salt] | 124% of control | 62% | – | IC50 (rat NHE-3; [4]): < 100 nM
13 | OC[C@H]1O[C@H](OC[C@H]2O[C@H](O[C@]3(CO)O[C@H](CO)[C@@H](O)[C@@H]3O)[C@H](O)[C@@H](O)[C@@H]2O)[C@H](O)[C@@H](O)[C@H]1O [raffinose] | – | – | 0.3% | –
14 | CN1Cc2c(Cl)cc(Cl)cc2C(c2ccc(S(=O)(=O)NCCOCCOCCNC(=O)CCC(=O)NCCOCCOCCNS(=O)(=O)c3ccc(C4CN(C)Cc5c(Cl)cc(Cl)cc54)cc3)cc2)C1 (centres unmarked) [Example 177, N1,N4-bis(2-(2-(2-(4-(6,8-dichloro-2-methyl-1,2,3,4-tetrahydroisoquinolin-4-yl)phenylsulfonamido)ethoxy)ethoxy)ethyl)succinamide] | 121% of control | 60% | – | rat NHE-3 Average pIC50 (rat NHE-3): >7; AUC [1]: < 4 ng·h/mL; Cmax [1]: < 3.2 ng/mL
15 | CN1Cc2c(Cl)cc(Cl)cc2[C@H](c2ccc(S(=O)(=O)NCCOCCOCCNC(=O)COCC(=O)NCCOCCOCCNS(=O)(=O)c3ccc([C@@H]4CN(C)Cc5c(Cl)cc(Cl)cc54)cc3)cc2)C1 (single isomer, unassigned) [Example 201, 2,2′-oxybis(N-(2-(2-(2-(4-((S or R)-6,8-dichloro-2-methyl-1,2,3,4-tetrahydroisoquinolin-4-yl)phenylsulfonamido)ethoxy)ethoxy)ethyl)acetamide) bis-hydrochloride salt] | 127% of control | 63% | – | IC50 (rat NHE-3; [4]): < 100 nM; amount of sodium excreted in the urine (urinary sodium levels): diminishes significantly and dose dependently
16 | OC[C@H]1O[C@@H](O[C@@H]2[C@@H](CO)OC(O)(CO)[C@H]2O)[C@H](O)[C@@H](O)[C@H]1O (mixture of isomers) [lactulose, reference compound] | – | – | 0.6% | –
17 | CN(C)C(=O)C(CCN1CCC(O)(c2ccc(Cl)cc2)CC1)(c1ccccc1)c1ccccc1 [loperamide, reference compound] | – | – | – | length of the small intestine travelled by the Evans Blue dye front [3]: ~25%
18 | O=C(O)c1cc(/N=N/c2ccc(O)c(C(=O)O)c2)ccc1O [olsalazine] | – | – | 2.3% | –
19 | OC[C@@H](O)[C@@H](O)[C@H](O)[C@H](O)CO [mannitol, Mannitol, reference compound] | – | – | 26% | –
20 | CC(=O)Nc1ccc(OCC(O)CNC(C)C)cc1 (centres unmarked) [practolol] | – | – | 95% | –
21 | C=CCc1ccccc1OCC(O)CNC(C)C (centres unmarked) [alprenolol] | – | – | 96% | –
22 | CN1Cc2c(Cl)cc(Cl)cc2C(c2cccc(S(=O)(=O)NCCOCCOCCNC(=O)NCCCCNC(=O)NCCOCCOCCNS(=O)(=O)c3cccc(C4CN(C)Cc5c(Cl)cc(Cl)cc54)c3)c2)C1 (centres unmarked) [Example 236, N,N′-(10,17-dioxo-3,6,21,24-tetraoxa-9,11,16,18-tetraazahexacosane-1,26-diyl)bis(3-(6,8-dichloro-2-methyl-1,2,3,4-tetrahydroisoquinolin-4-yl)benzenesulfonamide)] | 128% of control | 64% | – | rat NHE-3 Average pIC50 (rat NHE-3; [4]): >7
23 | O=C(O)P(=O)(O)O [foscarnet] | – | – | 17% | –
24 | CN1Cc2c(Cl)cc(Cl)cc2C(c2cccc(S(=O)(=O)NCCOCCOCCNC(=O)Nc3ccc(NC(=O)NCCOCCOCCNS(=O)(=O)c4cccc(C5CN(C)Cc6c(Cl)cc(Cl)cc65)c4)cc3)c2)C1 (centres unmarked) [Example 237, N,N′-(2,2′-(2,2′-(2,2′-(1,4-phenylenebis(azanediyl))bis(oxomethylene)bis(azanediyl)bis(ethane-2,1-diyl))bis(oxy)bis(ethane-2,1-diyl))bis(oxy)bis(ethane-2,1-diyl))bis(3-(6,8-dichloro-2-methyl-1,2,3,4-tetrahydroisoquinolin-4-yl)benzenesulfonamide)] | 120% of control | 60% | – | rat NHE-3 Average pIC50 (rat NHE-3; [4]): >7
25 | CN1Cc2c(Cl)cc(Cl)cc2C(c2ccc(S(=O)(=O)NCCOCCOCCNC(=O)COCC(=O)NCCOCCOCCNS(=O)(=O)c3ccc(C4CN(C)Cc5c(Cl)cc(Cl)cc54)cc3)cc2)C1 (centres unmarked) [Example 178, 2,2′-oxybis(N-(2-(2-(2-(4-(6,8-dichloro-2-methyl-1,2,3,4-tetrahydroisoquinolin-4-yl)phenylsulfonamido)ethoxy)ethoxy)ethyl)acetamide)] | 118% of control | 59% | – | rat NHE-3 Average pIC50 (rat NHE-3; [4]): 6 to 7; AUC [1]: < 2 ng·h/mL; Cmax [1]: < 2 ng/mL
